Measurements from PMC7018972, “Novel and selective inactivators of Triosephosphate isomerase with anti-trematode activity” (Scientific Reports, 2020).
Like-named read-outs stand apart in the source and are kept apart here.

Assays:
[1] = biological target: T1, human (HsTIM) (Homo sapiens, UniProt P60174); assay: Selectivity assay, inhibition of HsTIM; format: biochemical; conditions: read-out: inhibition against HsTIM
T1 construct: made in house; host or cells: Escherichia coli
Experimental: (§1) Expression and purification of proteins: FhTIM, RabbitTIM and HsTIM were expressed in Escherichia coli and purified as described in the literature[31],[37]. After purification, the enzyme, dissolved in 100 mM triethanolamine, 10 mM EDTA and 1 mM dithiothreitol (pH 8), was precipitated with ammonium sulfate (75% saturation) and stored at 4 °C. Before use, extensive dialysis against 100 mM triethanolamine/10 mM EDTA (pH 7.4) was performed. Protein concentration was determined by absorbance at 280 nm for FhTIM (ε = 33,460 M^−1cm^−1) and for RabbitTIM and HsTIM (ε = 33,460 M^−1cm^−1). Enzymatic activity was determined following the conversion of glyceraldehydes-3-phosphate into dihydroxyacetone phosphate in a coupled enzyme assay. The decrease in absorbance at 340 nm was followed in a multiplate reader VarioskanTM Flash Multimode Reader (Thermo ScientificTM, Waltham, MA, USA) at 38 °C. The reaction mixture (1 mL, pH 7.4) contained 100 mM triethanolamine, 10 mM EDTA, 0.2 mM NADH, 1 mM glyceraldehydes-3-phosphate and 0.9 units of α-glycerol phosphate dehydrogenase. The reaction was initiated by the addition of 5 ng/mL of the TIM of interest. For the inhibition studies, TIM was incubated at a concentration of 5 mg/mL in a buffer containing 100 mM triethanolamine, 10 mM EDTA, pH 7.4 and 10% of DMSO at 37 °C for 1 h. The mixture also contained the compounds, dissolved in DMSO, at the indicated concentrations. After 1 h, 10 µL were withdrawn and added to a final volume of 100 µL of the reaction mixture for the activity assay. The inhibition assay was performed in a 96-well microplate. None of the molecules tested here affected the activity of α-glycerol phosphate dehydrogenase, the enzyme used in the coupled assay. The IC50 value was taken as the concentration of drug needed to reduce the enzymatic activity to 50% by analysis using OriginLab8.5® sigmoidal regression (% of enzymatic activity vs. the logarithm of the compound concentration). The experiments were performed in triplicate in two independent experiments.

[2] = biological target: FhTIM (Fasciola hepatica, UniProt S4UI50); assay: Microscale thermophoresis (MST) binding to FhTIM; conditions: 24 °C
Experimental: MST experiments were performed according to the NanoTemper technologies protocol in a Monolith NT.115 (red/blue) instrument (NanoTemper Technologies, München, Germany[36]). With this technique, the diffusion behavior of a labeled protein is measured when an infrared light excites the movement of the protein in capillaries. This behavior is the combination of two effects: the fast, local environment-dependent responses of the fluorophore to the temperature jump and the slower diffusive thermophoresis fluorescence changes. It will be modified when the protein is complexed with increasing amounts of unlabeled partners, leading to titration curves that can be fit for Kd estimation. In practice, FhTIM was labeled with the Monolith His-Tag Labeling Kit RED-tris-NTA (NanoTemper Technologies, München, Germany), as described by the manufacturer. The experiments were performed using 20% and 40% MST power and between 20–80% LED power at 24 °C. The MST traces were recorded using the standard parameters: 5 s MST power off, 30 s MST power on, and 5 s MST power off. The compounds were used at high concentrations (around 5 mM) in the bindings check assay with DMSO at 5% v/v. If the binding check was positive, then the affinity determination was performed with the same experimental settings, with serial 2x dilutions of the compound of interest.

[3] = biological target: Fasciola hepatica TIM (FhTIM) (Fasciola hepatica, UniProt S4UI50); assay: Inhibition of recombinant FhTIM, coupled enzyme assay; format: biochemical
Procedure, shortened: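 E. coli-expressed FhTIM preincubated with compound 1 h at 37 °C in 100 mM triethanolamine, 10 mM EDTA, pH 7.4, 10% DMSO. Aliquot diluted into coupled assay (1 mM glyceraldehyde-3-phosphate, 0.2 mM NADH, α-glycerol phosphate dehydrogenase, pH 7.4) with NADH decrease at 340 nm, 38 °C. Triplicate, two independent experiments.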

[4] = system: newly excysted juvenile (NEJ) F. hepatica; assay: In vitro NEJ treatment; format: cell-based, Fasciola hepatica; conditions: NEJ
Experimental: F. hepatica metacercariae were acquired from DILAVE, MGAP, Uruguay. NEJ were obtained by in vitro excystement as previously described with minor modifications. Briefly, metacercariae were incubated with 1% sodium hypochlorite for 5 min at room temperature to remove the outer cyst wall and then washed exhaustively with PBS 200 U/mL Penicillin G sulfate, […] streptomycin sulfate, 500 ng/mL amphotericin B, 10 mM HEPES, counted and divided into groups of around 20 parasites that were transferred to 12 wells tissue culture plates. Parasites were maintained at 37 °C, 5% CO2 in modified Basch’s medium. At day 1, compounds were added at the indicated concentrations and 0.5% DMSO was added to control groups; each condition was tested in duplicate. NEJ behavior was monitored under a light microscope (Olympus BX41), every day each well was recorded for a minute in order to assess parasite motility and registered using the following score: 3- normally active; 2- reduced activity (sporadic movement); 1- immotile (dead)[48].

[5] = system: S. mansoni somules; assay: S. mansoni somules phenotypic screen in vitro; format: cell-based, Schistosoma mansoni; conditions: for S. mansoni somules severity score: score 0 to maximum 4; for SOMULES SEVERITY SCORE: Table 2S, 10 uM
Description: The NMRI isolate of S. mansoni was maintained by passage through Biomphalaria glabrata snails and 3–5 week-old, female Golden Syrian hamsters (Charles River, San Diego, CA) as intermediate and definite hosts, respectively. A dose of 600 infective larvae (cercariae) was used to infect hamsters. The acquisition, preparation and in vitro maintenance of S. mansoni post-infective larvae (schistosomula or somules) and adults have been already described[5],[50],[51]. Vertebrate animal maintenance and handling at the University of California San Diego Animal Care Facility were in accordance with protocols approved by the university’s Institutional Animal Care and Use Committee (IACUC).
Phenotypic screens with somules were performed as described[5],[50],[51]. Initially, 100 μL Basch medium, 100 U/ml penicillin, […] streptomycin, 4% heat-inactivated FBS (Corning Mediatech) and 1 μl compound in DMSO were added to clear, 96-well round-bottomed plates (Costar cat.# 3367). Then, 100 μL of the same medium containing 40–50 somules was added to mix the compound with somules (final concentration of DMSO was 0.5%). Assay plates were placed into plastic boxes humidified with wet tissue and then incubated at 37 °C in a 5% CO2 environment. Somules phenotypes were recorded every 24 h up to 72 h using an inverted microscope (Zeiss Axiovert 40 C).
Schistosome phenotypic responses were recorded employing a series of ‘descriptors,’ such as rounding, degeneration, overactivity, loss of translucency and changes in motility, as described previously[5],[50],[51],[53]. To allow for comparisons of compound activity, each descriptor was awarded a value of 1 and these were added up to a maximum ‘severity score’ of 4. Evidence of degeneracy or death was awarded the maximum score of 4. Scores were averaged across duplicate wells for each compound (see details in the supporting information).

[6] = biological target: T2, rabbit TIM (Oryctolagus cuniculus, UniProt P00939); assay: Selectivity assay, inhibition of rabbit TIM; format: biochemical; conditions: read-out: inhibition against rabbit TIM
T2 construct: made in house; host or cells: Escherichia coli
Experimental: as §1

[7] = system: murine macrophages and bovine sperm; assay: Non-specific toxicity against mammalian cells; format: cell-based
Experimental: As a proof of concept, we tested the best FhTIM inactivators against F. hepatica and S. mansoni parasites. Also, we use compound 191 as a non-inhibitor which has a closely related structure to that of compound 187. Some compounds were able to kill 100% of the newly excysted juvenile (NEJ) F. hepatica within 4 to 48 h (Table 2 and Fig. 2). […] In parallel, these compounds were assayed to characterize their non-specific toxicity against murine macrophages and bovine sperm. Both models are recommended by FDA as an in vitro prediction of toxicology.
J774.1 murine macrophage cells (ATCC, USA) were grown in DMEM culture milieu containing 4 mM glutamine and supplemented with 10% FCS[20]. The cells were seeded in a 96-well plate (5×10^4 cells in 200 µL culture medium) and incubated at 37 °C in a 5% CO2 atmosphere for 48 h, to allow cell adhesion prior to drug testing. Afterward, cells were exposed for 48 h to the compounds (25–400 µM) or the vehicle for control (0.4% DMSO), and additional controls (cells in medium) were used in each test. Cell viability was then assessed by measuring the mitochondria-dependent reduction of MTT (3-(4,5-dimethylthiazol-2-yl)-2,5-diphenyltetrazolium bromide) to formazan. For this purpose, MTT in sterile PBS (0.2% glucose), pH 7.4, was added to the macrophages to achieve a final concentration of 0.1 mg/mL, and the cells were incubated at 37 °C for 3 h. After removing the medium, formazan crystals were dissolved in 180 µL of DMSO and 20 µL of MTT buffer (0.1 M glycine, 0.1 M NaCl, 0.5 mM EDTA, pH 10.5), and the absorbance at 560 nm was measured. The IC50 was defined as the drug concentration at which 50% of the cells were viable, relative to the control (no drug added), and was determined by analysis using OriginLab8.5® sigmoidal regression (% of viable cells vs. the logarithm of the compound concentration). Tests were performed in triplicate.
Semen samples were obtained from a healthy fertile Hereford bull and kept frozen in 0.5 mL straws (extended in Andromed, Minitube, Germany[47]) under liquid nitrogen until use. The semen used belonged to a single freezing batch that was obtained during a regular collection schedule with an artificial vagina. Samples from three straws were thawed and a sperm pool was prepared in PBS at a concentration of 40 million spermatozoa per mL, then 50 μL of this sperm suspension was carefully mixed with 50 μL of compounds diluted to 100, 50, 25, 12.5 and 6.25 μM or with 1% DMSO in control experiments. Each condition was assayed by duplicate in 96-well plates and controls were assayed by triplicate. Plates were incubated at 37 °C for 1 h with moderate shaking. The motility analysis was carried out using a CASA (Computer Assisted Semen Analyzer) system Androvision (Minitube, Tiefenbach, Germany) with an Olympus BX 41 microscope (Olympus, Japan) equipped with a warm-stage at 37 °C. Each sample (10 μL) was placed onto a Makler Counting Chamber (depth 10 μm, Sefi-Medical Instruments, Israel) and the following parameters were evaluated: percentage of total motile spermatozoa (motility >5 μm/s) and velocity curved line (VCL, >24 μm/s). At least 400 spermatozoa were analyzed from each sample from at least four microscope fields.

[8] = system: murine macrophages and human peripheral blood mononuclear cells; set-up: method as in PMID 22536349; conditions: at 100 µM; cited from earlier work
[9] = Figure 1, ranges of inhibitory activity, read-out: IC50 range
[10] = recombinant FhTIM, 1 h incubation with compound at 37 °C, read-out: IC50
[11] = Table 1S, screening of 340 compounds in FhTIM, table head prints no unit, µM per b8/b9, read-out: IC50

T1 sequence (P60174 whole entry): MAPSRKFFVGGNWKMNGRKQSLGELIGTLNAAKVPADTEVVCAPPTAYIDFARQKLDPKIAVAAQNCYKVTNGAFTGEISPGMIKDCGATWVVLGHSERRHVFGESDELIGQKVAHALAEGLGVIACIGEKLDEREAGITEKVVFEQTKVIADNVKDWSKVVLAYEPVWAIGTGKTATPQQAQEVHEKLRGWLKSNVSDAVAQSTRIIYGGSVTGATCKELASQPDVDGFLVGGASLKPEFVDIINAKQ
Sequence of FhTIM (S4UI50 entry or part of it): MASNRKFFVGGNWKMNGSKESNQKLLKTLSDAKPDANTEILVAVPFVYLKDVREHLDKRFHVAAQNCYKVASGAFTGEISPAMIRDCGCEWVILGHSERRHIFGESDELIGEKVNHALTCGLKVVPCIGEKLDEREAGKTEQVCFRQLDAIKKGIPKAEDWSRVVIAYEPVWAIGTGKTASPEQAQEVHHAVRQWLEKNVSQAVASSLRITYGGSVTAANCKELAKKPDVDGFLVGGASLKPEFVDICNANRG
Sequence of Fasciola hepatica TIM (FhTIM) (S4UI50 entry or part of it): as above
T2 sequence (P00939 whole entry): as the sequence (P60174 whole entry) above, with Q20K, S21N, G27T, A119S counted along it

Compound	inhibition at 100 µM [1] [%]	Kd [2] [µM]	IC50 [3, 9] [µM]	IC50 [3, 10] [µM]	IC50 ([4]; Fasciola hepatica, incubation time 72 h) [µM]	S. mansoni somules severity score ([5]; Table 2, 72 h)	SOMULES SEVERITY SCORE ([5]; 24 h)	SOMULES SEVERITY SCORE ([5]; 48 h)	SOMULES SEVERITY SCORE ([5]; 3d)	inhibition at 100 µM [6] [%]	IC50 ([4]; Fasciola hepatica, incubation time 4 h) [µM]	IC50 [3, 11] [µM]	IC50 ([4]; Fasciola hepatica, incubation time 12 h) [µM]	IC50 ([4]; Fasciola hepatica, incubation time 30 h) [µM]	S. mansoni somules severity score ([5]; Table 2, time not given)	toxicity to mammalian cells in words ([7]; herein)	Toxicity mammalian cells ([7]; selectivity index parasite vs. mammalian cells, fixed doses 25 and 100 µM)	IC50 ([4]; incubation time 72 h) [µM]	toxicity in words [8]
O=C1C(=Cc2ccc([N+](=O)[O-])s2)C(=O)N(CCc2ccccc2)S(=O)(=O)N1CCc1ccccc1 [Compound 115]	< 20	120 ± 12	< 50	8 ± 2	7 ± 2	4 (72 h)	2	3	4	< 20	–	–	–	–	–	–	–	–	–
O=C1C(=Cc2ccc([N+](=O)[O-])s2)C(=O)N(Cc2ccccc2)S(=O)(=O)N1Cc1ccccc1 [Compound 114]	–	664 ± 25	< 50	25 ± 8	–	4 (72 h)	0	3	4	–	6.5 ± 0.6	–	–	–	–	–	–	–	–
CCCCCCN1C(=O)C(=Cc2ccc([N+](=O)[O-])cc2)C(=O)N(CCCCCC)S1(=O)=O [Compound 128]	< 20	120 ± 10	< 50	5 ± 1	–	–	–	–	–	< 20	–	< 25	10 ± 1	–	–	–	–	–	–
O=C1C(=Cc2ccc([N+](=O)[O-])cc2)C(=O)N(CCc2ccccc2)S(=O)(=O)N1CCc1ccccc1 [Compound 110]	< 20	–	< 50	7 ± 1	–	–	0	0	0	< 20	–	–	–	5 ± 2	0	–	–	–	–
C=CCn1c(-c2ccc(Cl)cc2)csc1=NN=CC=Cc1cccs1 [Compound 1134]	–	–	–	45 ± 4	–	–	–	–	–	–	–	50 to 100	–	–	–	non-toxic	NT (when the IC50 vs. the parasite was at least 10 times less than the IC50 vs. the mammalian cells, we considered these compounds as non-toxic (NT))	50 ± 6	non-toxic
